We go through 3 molecules from ChEMBL document CHEMBL1134555 (J Med Chem, 2001).

A word on the Ki: it is the dissociation constant of the complex between target and ligand, obtained from inhibition or displacement.

The target of the experiment is Nitric oxide synthase 1 (Rattus norvegicus, UniProt P29476). In words: Inhibitory activity against recombinant rat nNOS.
Sequence of Nitric oxide synthase 1 (P29476 whole entry): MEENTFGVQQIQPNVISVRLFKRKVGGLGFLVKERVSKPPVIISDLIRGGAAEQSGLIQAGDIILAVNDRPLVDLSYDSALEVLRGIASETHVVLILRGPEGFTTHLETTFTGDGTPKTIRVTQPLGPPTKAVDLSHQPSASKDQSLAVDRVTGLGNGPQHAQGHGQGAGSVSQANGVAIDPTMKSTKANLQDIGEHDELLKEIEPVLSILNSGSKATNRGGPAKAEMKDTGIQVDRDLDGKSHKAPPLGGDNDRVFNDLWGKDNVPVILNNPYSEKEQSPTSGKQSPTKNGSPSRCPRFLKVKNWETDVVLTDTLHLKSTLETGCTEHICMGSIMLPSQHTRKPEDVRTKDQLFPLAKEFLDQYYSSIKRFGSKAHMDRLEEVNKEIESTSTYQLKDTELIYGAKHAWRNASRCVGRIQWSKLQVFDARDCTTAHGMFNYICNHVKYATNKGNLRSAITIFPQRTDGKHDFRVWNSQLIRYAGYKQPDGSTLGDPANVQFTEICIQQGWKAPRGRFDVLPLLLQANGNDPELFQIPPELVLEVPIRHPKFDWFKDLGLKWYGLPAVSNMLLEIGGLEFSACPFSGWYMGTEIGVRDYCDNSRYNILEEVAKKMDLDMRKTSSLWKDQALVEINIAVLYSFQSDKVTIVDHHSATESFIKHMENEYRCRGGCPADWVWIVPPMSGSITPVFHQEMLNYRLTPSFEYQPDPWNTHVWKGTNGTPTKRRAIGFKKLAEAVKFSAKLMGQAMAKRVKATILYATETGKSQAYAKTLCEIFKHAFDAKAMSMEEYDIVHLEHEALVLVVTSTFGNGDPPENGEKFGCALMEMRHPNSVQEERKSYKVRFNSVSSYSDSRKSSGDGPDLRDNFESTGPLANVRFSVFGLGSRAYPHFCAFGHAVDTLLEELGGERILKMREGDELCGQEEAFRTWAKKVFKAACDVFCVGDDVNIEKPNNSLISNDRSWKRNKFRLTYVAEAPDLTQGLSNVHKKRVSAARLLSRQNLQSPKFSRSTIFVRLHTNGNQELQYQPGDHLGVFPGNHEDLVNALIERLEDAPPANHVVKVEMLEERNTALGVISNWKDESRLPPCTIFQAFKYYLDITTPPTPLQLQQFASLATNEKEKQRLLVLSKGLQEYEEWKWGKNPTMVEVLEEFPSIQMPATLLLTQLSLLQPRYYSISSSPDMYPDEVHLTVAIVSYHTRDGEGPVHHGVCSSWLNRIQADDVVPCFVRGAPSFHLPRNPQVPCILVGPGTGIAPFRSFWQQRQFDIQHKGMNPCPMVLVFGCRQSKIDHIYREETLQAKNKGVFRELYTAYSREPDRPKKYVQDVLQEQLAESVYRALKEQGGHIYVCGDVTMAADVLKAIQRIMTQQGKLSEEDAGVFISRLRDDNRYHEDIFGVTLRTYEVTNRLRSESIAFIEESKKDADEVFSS

With `N=C(NCCC[C@H](N)C(=O)NCCN)N[N+](=O)[O-]`, the Ki came to 540 nM.
In the case of `N=C(NCCC[C@H](N)C(=O)NCCCN)N[N+](=O)[O-]`, the Ki was 460 nM.
For `N=C(NCCC[C@H](N)C(=O)NCCCCN)N[N+](=O)[O-]`, the Ki worked out at 350 nM.
